What is called melting point is the temperature, or range, at which the solid turns liquid.

In the case of `C[C@@H]1CN(CC(=O)Nc2cccc3ncccc23)C[C@H](C)N1c1ncnc2sccc12` [Example 10], the melting point lay within 194 to 195 °C.

`C[C@@H]1CN(CC(=O)Nc2ccccc2Cl)C[C@H](C)N1c1ncnc2sccc12` [Example 7, cis-N-(2-Chlorophenyl)-2-[3,5-dimethyl-4-(thieno[2,3-d]pyrimidin-4-yl)piperazin-1-yl]acetamide] had a melting point of 206 to 207 °C. The value for `Cc1c(CO)cccc1NC(=O)CN1C[C@@H](C)N(c2ncnc3sccc23)[C@@H](C)C1` [Example 4, cis-N-[3-Hydroxymethyl-2-methylphenyl]-2-(3,5-dimethyl-4-(thieno[2,3-d]pyrimidin-4-yl)piperazin-1-yl)acetamide] was 203 to 204 °C; that for `CC(=O)Nc1cccc(S(=O)(=O)N2[C@H](C)CN(CC(=O)Nc3ccccc3C)C[C@@H]2C)c1` [Example 62, cis-2-[4-(3-Acetylaminobenzenesulphonyl)-3,5-dimethylpiperazin-1-yl]-N-(2-methylphenyl)acetamide] was 236 to 238 °C; that for `Cc1ccccc1NC(=O)CN1CC2CCC(C1)N2S(=O)(=O)c1cccc(C#N)c1` was 166 to 168 °C. The value for `C[C@@H]1CN(CC(=O)Nc2nccc3ccccc23)C[C@H](C)N1c1ncnc2sccc12` [Example 14, cis-2-(3,5-Dimethyl-4-(thieno[2,3-d]pyrimidin-4-yl)piperazin-1-yl)-N-(isoquinolin-1-yl)acetamide] was 206 to 207 °C. Then `C[C@@H]1CN(CC(=O)Nc2cccc3cnccc23)C[C@H](C)N1c1ncnc2sccc12` [Example 9, cis-2-(3,5-Dimethyl-4-(thieno[2,3-d]pyrimidin-4-yl)piperazin-1-yl)-N-(isoquinolin-5-yl)acetamide], with 213 to 216 °C; and `Cc1ccccc1NC(=O)CN1C[C@@H](C)N(S(=O)(=O)c2cccc(NS(C)(=O)=O)c2)[C@@H](C)C1` [Example 64, cis-2-[4-(3-Methanesulphonylaminobenzenesulphonyl)-3,5-dimethylpiperazin-1-yl]-N-(2-methylphenyl)acetamide], with 102 to 103 °C. `O=C1Cc2c(cccc2NC(=O)CN2CC3CCC(C2)N3c2ncnc3sccc23)N1`: the melting point is 265 °C (dec.). In turn, `C[C@@H]1CN(CC(=O)Nc2ccccc2C(F)(F)F)C[C@H](C)N1c1ncnc2sccc12` [Example 12, cis-2-(3,5-Dimethyl-4-(thieno[2,3-d]pyrimidin-4-yl)piperazin-1-yl]-N-(2-trifluoromethylphenyl)acetamide] showed a melting point of 154 to 155 °C. Then `Cc1ccccc1NC(=O)CN1CC2CCC(C1)N2S(=O)(=O)c1cccc2nsnc12`, with 169 to 170 °C. In turn, `Cc1cccnc1NC(=O)CN1C[C@@H](C)N(c2ncnc3sccc23)[C@@H](C)C1` [Example 13, cis-2-(3,5-Dimethyl-4-(thieno[2,3-d]pyrimidin-4-yl)piperazin-1-yl)-N-(3-methylpyridin-2-yl)acetamide] returned a melting point of 157 to 159 °C. Then `Cc1ccccc1NC(=O)CN1CC2CCC(C1)N2S(=O)(=O)c1ccccc1Cl`, with 170 to 171 °C; and `C[C@@H]1CN(CC(=O)Nc2ccccc2Cl)C[C@H](C)N1c1ncnc2c1ncn2C` [Example 8, cis-N-(2-Chlorophenyl)-2-[3,5-dimethyl-4-(9-methyl-9H-purin-6yl)piperazin-1-yl]acetamide], with 221 to 222 °C; and `Cc1ccccc1NC(=O)CN1C[C@@H](C)N(S(=O)(=O)c2cccc([N+](=O)[O-])c2)[C@@H](C)C1` [Example 56, cis-N-(2-Methylphenyl)-2-[4-(3-nitrobenzenesulphonyl)-3,5-dimethylpiperazin-1-yl]-acetamide], with 163 to 164 °C.

Compound `CC(=O)Nc1ccc(S(=O)(=O)N2C3CCC2CN(CC(=O)Nc2ccccc2C)C3)cc1` had a melting point of 205 to 206 °C. The value for `Cc1ccccc1NC(=O)CN1C[C@@H](C)N(c2ncnc3sccc23)[C@@H](C)C1` [Example 6, cis-2-[3,5-Dimethyl-4-(thieno[2,3-d]pyrimidin-4-yl)piperazin-1-yl]-N-(2-methylphenyl)acetamide] was 174 to 175 °C; that for `Cc1ccc(NS(C)(=O)=O)cc1NC(=O)CN1CC2CCC(C1)N2c1ncnc2scnc12` was 145 to 187 °C; that for `Cc1ccccc1NC(=O)CN1CC2CCC(C1)N2c1ncnc2scc(C)c12` was 199 to 200 °C. `Cc1ccccc1NC(=O)CN1C[C@@H](C)N(S(=O)(=O)c2cccc(C(=O)NCCN)c2)[C@@H](C)C1` [Example 71, cis-2-[4-(2-Aminoethylaminocarbonylbenzenesulphonyl)-3,5-dimethylpiperazin-1-yl]-N-(2-methylphenyl)acetamide] showed a melting point of 90 to 92 °C. As to `Cc1ccccc1NC(=O)CN1C[C@@H](C)N(S(=O)(=O)c2cccc(C(N)=O)c2)[C@@H](C)C1` [Example 63, cis-2-[4-(3-Aminocarbonylbenzenesulphonyl)-3,5-dimethylpiperazin-1-yl]-N-(2-methylphenyl)acetamide], the melting point lay in the range of 124 to 125 °C. Then `Cc1ccccc1NC(=O)CN1CC2CCC(C1)N2S(=O)(=O)c1cccc2nonc12`, with 167 to 168 °C; and `C[C@@H]1CN(CC(=O)Nc2nc3ccccc3n2C)C[C@H](C)N1c1ncnc2sccc12` [Example 49, cis-2-(3,5-Dimethyl-4-(thieno[2,3-d]pyrimidin-4-yl)piperazin-1-yl)-N-(1-methyl-1H-benzoimidazol-2-yl)acetamide], with 200 °C. Then `Cc1ccccc1NC(=O)CN1C[C@@H](C)N(S(=O)(=O)c2cccc(C#N)c2)[C@@H](C)C1` [Example 55, cis-2-[4-(3-Cyanobenzenesulphonyl)-3,5-dimethylpiperazin-1-yl]-N-(2-methylphenyl)acetamide], with 152 to 153 °C. The value for `Cc1ccccc1NC(=O)CN1C[C@@H](C)N(S(=O)(=O)c2cccc(N)c2)[C@@H](C)C1` [Example 57, cis-2-[4-(3-Aminobenzenesulphonyl)-3,5-dimethylpiperazin-1-yl]-N-(2-methylphenyl)acetamide] was 202 to 203 °C; that for `Cc1cccc(C)c1NC(=O)CN1CCN(c2ncnc3sccc23)C(C)C1` (racemic) [Example 1, (±)-N-(2,6-Dimethylphenyl)-2-(3-methyl-4-(thieno[2,3-d]pyrimidin-4-yl)piperazin-1-yl)acetamide] was 184 to 185 °C; that for `COc1cccc(S(=O)(=O)N2C3CCC2CN(CC(=O)Nc2ccccc2C)C3)c1` was 163 to 165 °C.

For the compound `Cc1c(F)cccc1NC(=O)CN1CC2CCC(C1)N2S(=O)(=O)c1ccccc1`, the melting point lay within 168 to 169 °C. Turning to `Cc1ccccc1NC(=O)CN1CC2CCC(C1)N2S(=O)(=O)c1ccc(Cl)s1`, the melting point fell in the range of 150 to 152 °C. Then `COc1ccc(Cl)cc1S(=O)(=O)N1C2CCC1CN(CC(=O)Nc1ccccc1C)C2`, with 180 to 181 °C. Then `Cc1cccc(C)c1NC(=O)CN1C[C@@H](C)N(c2ncnc3sccc23)[C@@H](C)C1` [Example 2, cis-[2-(3,5-Dimethyl-4-(thieno[2,3-d]pyrimidin-4-yl)piperazin-1-yl)]-N-(2,6-dimethylphenyl)acetamide], with 186 to 189 °C.

Values taken from patent US6969713B2, “Piperidine and piperazine acetamide derivatives” (AstraZeneca AB, priority 1999, dated 2005).
